Data on nine molecules can be found in patent publication US8624027B2, “Combination therapy for treating cancer and diagnostic assays for use therein” (AbbVie Inc., priority 2005, dated 2014).

Data set [1] in a line: Pharmacokinetic evaluation in rat. To be noted: male, Sprague-Dawley, plasma; for AUC(0-inf): single 5 mg/kg oral dose, Table 1, read-out: Pharmacokinetic area under the plasma concentration Curve (rat) AUC0-∞; for AUC / Cmax: 5 mg/kg, oral; for AUC: Table 3, read-out: Pharmacokinetic area under the plasma concentration Curve (rat) AUC; for Cmax: Table 3, read-out: Pharmacokinetic peak plasma concentration (rat) Cmax. The data set is classed as in vivo. The protocol: The pharmacokinetic behavior of compounds of this disclosure was determined following a single 2 mg/kg intravenous or 5 mg/kg oral dose in male Sprague-Dawley derived rats (n=3 per group). The compounds were prepared as 2 mg/mL solution in a 10% DMSO in PEG-400 formulation for both oral and intravenous administration. The 1 mL/kg intravenous dose was administered as a slow bolus (about 1-2 minutes) in the jugular vein of a rat under light ether anesthetic. The oral dose was administered by gavage. Serial blood samples were obtained from a tail vein of each rat prior 0.1 (IV only), 0.25, 0.5, 1, 1.5, 2, 3, 4, 6, 8 and 24 hours after dosing. The heparinized samples were thoroughly mixed and placed in an ice bath. Plasma was separated by centrifugation and stored frozen prior to analysis.
The compounds of interest were separated from the plasma using protein precipitation with acetonitrile. A plasma (100-200 μL, sample or spiked standard) aliquot was combined with 50 μL of internal standard (structurally related analog prepared in acetonitrile) and 1 ml acetonitrile in a 96-well polypropylene deep well plate. The plates were vortexed for 30 seconds followed by centrifugation (3500 rpm×15 minutes, 4° C.). In an automated manner, the supernatant was transferred to a clean 96-well plate. The samples were evaporated to near dryness on a Micro-Vap™ under a stream of dry nitrogen over low heat (˜37° C.). The samples were reconstituted vortexing with 0.2 mL 5% DMSO in acetonitrile. A 0.1-0.2 ml aliquot of acetonitrile: 0.1% trifluoroacetic acid (20:80, by volume) was added to each well, followed by an additional 30 second vortexing. The plates were centrifuged (3500 rpm×15 minutes, 4° C.) prior to HPLC-MS/MS analysis. Samples were analyzed simultaneously with spiked plasma standards. All samples from each study were analyzed as a single batch on the LC-MS/MS.
The compounds of interest and the internal standard were separated from each other and co-extracted contaminants on a 50×3 mm Keystone Betasil CN 5 μm column with an acetonitrile: 0.1% trifluoroacetic acid mobile phase (50:50, by volume) at a flow rate of 0.7 ml/min. Analysis was performed on a Sciex API 300™ Biomolecular Mass Analyzer using a heated nebulizer interface. Peak areas of the title compounds and internal standards were determined using the Sciex MacQuan™ software. Calibration curves were derived from peak area ratio (parent drug/internal standard) of the spiked rat plasma standards using least squares linear regression of the ratio versus the theoretical concentration. The methods were generally linear over the range of the standard curve (correlation coefficients >0.99) with an estimated quantitation limit of 0.01 μg/mL. The plasma concentration data for each animal were submitted to multi-exponential curve fitting using WinNonlin. The area under the plasma concentration-time curve from 0 to t hours (time of the last measurable plasma concentration) after dosing (AUC0-t) was calculated using the linear trapezoidal rule for the plasma concentration-time profiles. The residual area extrapolated to infinity, determined as the final measured plasma concentration (Ct) divided by the terminal elimination rate constant (β), was added to AUC0-t to produce the total area under the curve (AUC0-∞). Ki values shown in the tables below were determined using Wang's equation (Wang Z X., An Exact Mathematical Expression For Describing Competitive Binding Of Two Different Ligands To A Protein Molecule. FEBS Lett. 1995; 360:111-4)).

Data set [2] concerns NCI-H146 human small cell lung carcinoma cells. Nature of the data set: Cellular efficacy in human tumor cell line (MTS viability assay). The data set is classed as cell-based. To be noted: NCI-H146, 10% human serum, 48 hours. As for the experimental part: NCI-H146 (ATCC, Manassas, Va.) human small cell lung carcinoma cells were plated 50,000 cells per well in 96-well tissue culture plates in a total volume of 100 μL tissue culture medium supplemented with 10% human serum (Invitrogen, Carlsbad, Calif.) instead of fetal bovine serum and treated with a 2-fold serial dilution of the compounds of interest from 10 μM to 0.020 μM. Each concentration was tested in duplicate at least 3 separate times. The number of viable cells following 48 hours of compound treatment was determined using the CellTiter 96® AQueous non-radioactive cell proliferation MTS assay according to manufacturer's recommendations (Promega Corp., Madison, Wis.).
On the technique in general: Formazan colour is commonly taken as a measure of viable cells.

In data set [3] the target is Bcl-XL protein (Homo sapiens, UniProt Q07817). Description: Bcl-XL binding affinity, fluorescence polarization with fluorescein-labeled BAD peptide. To be noted: Wang's equation, read-out: Target Binding Affinity Ki (Bcl-XL). Background: In fluorescence polarisation assays a small probe gives low polarisation when free and higher when bound to something large.
Bcl-XL protein, sequence (Q07817 with tags, fused parts or gaps DEL45-84): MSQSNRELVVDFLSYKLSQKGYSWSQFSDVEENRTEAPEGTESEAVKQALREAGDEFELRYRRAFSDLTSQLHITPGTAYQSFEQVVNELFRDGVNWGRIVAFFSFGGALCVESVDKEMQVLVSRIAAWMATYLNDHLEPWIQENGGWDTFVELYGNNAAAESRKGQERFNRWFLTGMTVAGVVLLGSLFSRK
Description: A mixture comprising 125 μL per well of assay buffer (20 mM phosphate buffer (pH 7.4), 1 mM EDTA, 50 mM NaCl, 0.05% PF-68), 6 nM of Bcl-XL protein (prepared as described in Science 1997, 275, 983-986), 1 nM fluorescein-labeled BAD peptide (prepared in-house) and the DMSO solution of the compound was shaken for 2 minutes and placed in a LJL Analyst (LJL Bio Systems, CA). A negative control (DMSO, 15 nM BAD peptide, assay buffer) and a positive control (DMSO, 1 nM BAD peptide, 6 nM Bcl-XL, assay buffer) were used to determine the range of the assay. Polarization was measured at room temperature using a continuous Fluorescein lamp (excitation 485 nm, emission 530 nm). Percentage of inhibition was determined by (1-((mP value of well-negative control)/range))×100%.
Data set [4] has as its target T1, Bcl-2 protein (Homo sapiens, UniProt P10415, DELINS35-91DVEENRTEAPEGTESE, form not given).
T1 construct: fused on or other part: A short piece of the Bcl-xL (Q07817) loop replaces Bcl-2 loop residues 35-91; The C-terminal membrane anchor is absent
Description: Bcl-2 binding affinity, fluorescence polarization with fluorescein-labeled BAX peptide. To be noted: Wang's equation, read-out: Target Binding Affinity Ki (Bcl-2).

[5] abbreviates: Table 1, read-out: NCI-H146 Cellular Efficacy EC50.
The mark [6] stands for this setting: Table 3, read-out: NCI-H146 Cellular Efficacy H146 EC50.

Where two headings read alike, the source gives them in different places.

T1 sequence (P10415 with tags, fused parts or gaps with the stated changes): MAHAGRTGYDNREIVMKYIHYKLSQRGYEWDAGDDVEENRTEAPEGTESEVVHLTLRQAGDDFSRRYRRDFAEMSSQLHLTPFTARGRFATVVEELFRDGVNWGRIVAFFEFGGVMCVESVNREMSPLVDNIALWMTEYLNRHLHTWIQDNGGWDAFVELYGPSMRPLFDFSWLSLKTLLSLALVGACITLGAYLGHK

Consider `CC1(C)CCC(c2ccc(Cl)cc2)=C(CN2CCN(c3ccc(C(=O)NS(=O)(=O)c4ccc(N[C@H](CCN5CCOCC5)CSc5ccccc5)c(S(=O)(=O)C(F)(F)Cl)c4)cc3)CC2)C1` [Example 19, 3-((chloro(difluoro)methyl)sulfonyl)-N-(4-(4-((2-(4-chlorophenyl)-5,5-dimethylcyclohex-1-en-1-yl)methyl)piperazin-1-yl)benzoyl)-4-(((1R)-3-(morpholin-4-yl)-1-((phenylsulfanyl)methyl)propyl)amino)benzenesulfonamide], for which the AUC(0-inf) in data set [1] is 7.12 µM·h. Further, the EC50 (usually the concentration needed to bring the measured effect to its halfway point) in data set [2] (setting [5]) stood at 15.8 nM. The Ki in data set [3] and in data set [4] was at most 1 nM each time.

On to `CN(C)CC[C@H](CSc1ccccc1)Nc1ccc(S(=O)(=O)NC(=O)c2ccc(N3CCN(CC4=C(c5ccc(Cl)cc5)CCCC4)CC3)cc2)cc1S(=O)(=O)C(F)(F)Cl` [Example 18, 3-((chloro(difluoro)methyl)sulfonyl)-N-(4-(4-((2-(4-chlorophenyl)cyclohex-1-en-1-yl)methyl)piperazin-1-yl)benzoyl)-4-(((1R)-3-(dimethylamino)-1-((phenylsulfanyl)methyl)propyl)amino)benzenesulfonamide], for which, in data set [1], the AUC was 0.609 µM·h. The Cmax in data set [1] amounted to 59 nM. Moreover, in data set [1], the AUC(0-inf) turned out to be 0.61 µM·h. Besides, the results for the EC50 in data set [2] (setting [5]) and in data set [2] (setting [6]) were 15.4 nM and 15 nM, respectively. Moreover, the inhibition constant (Ki) in data set [3] and in data set [4] was at most 1 nM in each case.

As to `CN(C)CC[C@H](CSc1ccccc1)Nc1ccc(S(=O)(=O)NC(=O)c2ccc(N3CCN(CC4=C(c5ccc(Cl)cc5)CCCC4)CC3)cc2)cc1S(=O)(=O)C(F)(F)F` [Example 26, N-(4-(4-((2-(4-chlorophenyl)cyclohex-1-en-1-yl)methyl)piperazin-1-yl)benzoyl)-4-(((1R)-3-(dimethylamino)-1-((phenylsulfanyl)methyl)propyl)amino)-3-((trifluoromethyl)sulfonyl)benzenesulfonamide], in data set [1], the AUC was determined as 0.803 µM·h, the Cmax worked out at 97 nM and the AUC(0-inf) came out at 0.8 µM·h. Also, the EC50 in data set [2] (setting [5]) was 24.3 nM. The concentration for a half-maximal effect (EC50) in data set [2] (setting [6]) was found to be 24 nM. The inhibitory constant (Ki) (usually the dissociation constant of the complex between target and ligand, obtained from inhibition or displacement) in data set [3] is at most 1 nM. Also, the inhibition constant Ki in data set [4] is at most 1 nM.

For the molecule `CC(C)N(C)CC[C@H](CSc1ccccc1)Nc1ccc(S(=O)(=O)NC(=O)c2ccc(N3CCN(CC4=C(c5ccc(Cl)cc5)CCC(C)(C)C4)CC3)cc2)cc1S(=O)(=O)C(F)(F)Cl` [Example 23, 3-((chloro(difluoro)methyl)sulfonyl)-N-(4-(4-((2-(4-chlorophenyl)-5,5-dimethylcyclohex-1-en-1-yl)methyl)piperazin-1-yl)benzoyl)-4-(((1R)-3-(isopropyl(methyl)amino)-1-((phenylsulfanyl)methyl)propyl)amino)benzenesulfonamide], the AUC(0-inf) in data set [1] was determined as 3.54 µM·h. The concentration for a half-maximal effect (EC50) in data set [2] (setting [5]) came out at 52.8 nM. The Ki in data set [3] and in data set [4] was at most 1 nM throughout.

As to `O=C(NS(=O)(=O)c1ccc(N[C@H](CCN2CCCCCC2)CSc2ccccc2)c(S(=O)(=O)C(F)(F)F)c1)c1ccc(N2CCN(CC3=C(c4ccc(Cl)cc4)CCCC3)CC2)cc1` [Example 16, 4-(((1R)-3-(azepan-1-yl)-1-((phenylsulfanyl)methyl)propyl)amino)-N-(4-(4-((2-(4-chlorophenyl)-1-cyclohex-1-en-1-yl)methyl)piperazin-1-yl)benzoyl)-3-((trifluoromethyl)sulfonyl)benzenesulfonamide], the AUC(0-inf) in data set [1] is 2.37 µM·h. Also, the EC50 in data set [2] (setting [5]) stood at 37.4 nM. In addition, the Ki in data set [3] and in data set [4] was at most 2 nM in each case.

With `CC1(C)CCC(c2ccc(Cl)cc2)=C(CN2CCN(c3ccc(C(=O)NS(=O)(=O)c4ccc(N[C@H](CCN5CC6CC5CO6)CSc5ccccc5)c(S(=O)(=O)C(F)(F)F)c4)cc3)CC2)C1` (stereo partly drawn) [Example 10, N-(4-(4-((2-(4-chlorophenyl)-5,5-dimethylcyclohex-1-en-1-yl)methyl)piperazin-1-yl)benzoyl)-4-(((1R)-3-(2-oxa-5-azabicyclo[2.2.1]hept-5-yl)-1-((phenylsulfanyl)methyl)propyl)amino)-3-((trifluoromethyl)sulfonyl)benzenesulfonamide], the AUC(0-inf) in data set [1] came to 2.48 µM·h. Besides, in data set [2] (setting [5]), the EC50 is 34.2 nM. Moreover, the inhibitory constant (Ki) in data set [3] and in data set [4] was at most 1 nM each time.

For `CC1(C)CCC(CN2CCN(c3ccc(C(=O)NS(=O)(=O)c4ccc(N[C@H](CCN5CCCC5)CSc5ccccc5)c(S(=O)(=O)C(F)(F)Cl)c4)cc3)CC2)=C(c2ccc(Cl)cc2)C1` [Example 31, 3-((chloro(difluoro)methyl)sulfonyl)-N-(4-(4-((2-(4-chlorophenyl)-4,4-dimethylcyclohex-1-en-1-yl)methyl)piperazin-1-yl)benzoyl)-4-(((1R)-1-((phenylsulfanyl)methyl)-3-(pyrrolidin-1-yl)propyl)amino)benzenesulfonamide], in data set [1], the AUC(0-inf) is 5.1 µM·h. In data set [2] (setting [5]), the EC50 was 13 nM. In addition, the Ki in data set [3] and in data set [4] was at most 1 nM in each case.

For the molecule `CN(C)CC[C@H](CSc1ccccc1)Nc1ccc(S(=O)(=O)NC(=O)c2ccc(N3CCN(CC4=C(c5ccc(Cl)cc5)CC(C)(C)CC4)CC3)cc2)cc1S(=O)(=O)C(F)(F)F` [Example 37, N-(4-(4-((2-(4-chlorophenyl)-4,4-dimethylcyclohex-1-en-1-yl)methyl)piperazin-1-yl)benzoyl)-4-(((1R)-3-(dimethylamino)-1-((phenylsulfanyl)methyl)propyl)amino)-3-((trifluoromethyl)sulfonyl)benzenesulfonamide], the AUC(0-inf) in data set [1] turned out to be 7.3 µM·h. In addition, the EC50 in data set [2] (setting [5]) came out at 17.5 nM. Further, the Ki in data set [3] and in data set [4] was at most 1 nM throughout.

As to `O=C(NS(=O)(=O)c1ccc(N[C@H](CCN2CCCOCC2)CSc2ccccc2)c(S(=O)(=O)C(F)(F)F)c1)c1ccc(N2CCN(CC3=C(c4ccc(Cl)cc4)CCCC3)CC2)cc1` [Example 15, N-(4-(4-((2-(4-chlorophenyl)cyclohex-1-en-1-yl)methyl)piperazin-1-yl)benzoyl)-4-(((1R)-3-(1,4-oxazepan-4-yl)-1-((phenylsulfanyl)methyl)propyl)amino)-3-((trifluoromethyl)sulfonyl)benzenesulfonamide], in data set [1], the AUC(0-inf) was 1.25 µM·h. Also, the EC50 in data set [2] (setting [5]) was 9.9 nM. Besides, the inhibitory constant (Ki) in data set [3] and in data set [4] was at most 1 nM throughout.
